Reference: ChEMBL document CHEMBL5150066, “Synthesis of estrone selenocyanate Compounds, anti-tumor activity evaluation and Structure-activity relationship analysis” (Bioorg Med Chem, 2022)

Columns and labels:
[1] = Cytotoxicity against HEK293T cells assessed as inhibition of cell growth incubated for 72 hrs by MTT assay; assay type: toxicity, cell-based, HEK-293T; conditions: human
HeLa = test: Antiproliferative activity against human HeLa cells assessed as inhibition of cell growth incubated for 72 hrs by MTT assay; assay type: functional, cell-based
[2] = Potency index, ratio of test compound IC50 to 2-methoxyestradiol IC50 for cytotoxicity against human HEK293T cells assessed as inhibition of cell growth incubated for 72 hrs by MTT assay; assay type: toxicity, cell-based, HEK-293T; conditions: read-out: Ratio IC50
HepG2 = test: Antiproliferative activity against human HepG2 cells assessed as inhibition of cell growth incubated for 72 hrs by MTT assay; assay type: functional, cell-based; conditions: HepG2, 72 h
SK-OV-3 [3] = test: Antiproliferative activity against human SK-OV-3 cells assessed as inhibition of cell growth incubated for 72 hrs by MTT assay; assay type: functional, cell-based; conditions: SK-OV-3, 72 h
T47D = test: Antiproliferative activity against human T47D cells assessed as inhibition of cell growth incubated for 72 hrs by MTT assay; assay type: functional, cell-based
[4] = Selectivity index, ratio of IC50 for cytotoxicity against HEK293T cells to IC50 for antiproliferative activity against human HepG2 cells; assay type: toxicity, cell-based; conditions: HEK293T cells versus HepG2 cells, read-out: Ratio IC50
MCF7 = test: Antiproliferative activity against human MCF7 cells assessed as inhibition of cell growth incubated for 72 hrs by MTT assay; assay type: functional, cell-based; conditions: MCF7, 72 h
SK-OV-3 [5] = test: Induction of apoptosis in human SK-OV-3 cells assessed as viable cells at 25 umol/L incubated for 24 hrs by Annexin V-FITC/PI staining based flow cytometric analysis (reference value: 89.83 %); assay type: functional; conditions: SK-OV-3, 24 h, dose 25 µmol/L, read-out: Activity
SK-OV-3 [6] = test: Induction of apoptosis in human SK-OV-3 cells assessed as late apoptotic cells at 10 umol/L incubated for 24 hrs by Annexin V-FITC/PI staining based flow cytometric analysis (reference value: 5.51 %); assay type: functional; conditions: dose 10 µmol/L, at 10 µM
SK-OV-3 [7] = test: Induction of apoptosis in human SK-OV-3 cells assessed as necrotic cells at 15 umol/L incubated for 24 hrs by Annexin V-FITC/PI staining based flow cytometric analysis (reference value: 0.00 %); assay type: functional; conditions: dose 15 µmol/L, at 15 µM
SK-OV-3 [8] = test: Induction of apoptosis in human SK-OV-3 cells assessed as late apoptotic cells at 5 umol/L incubated for 24 hrs by Annexin V-FITC/PI staining based flow cytometric analysis (reference value: 5.51 %); assay type: functional; conditions: dose 5 µmol/L, at 5 µM
SK-OV-3 [9] = test: Induction of apoptosis in human SK-OV-3 cells assessed as necrotic cells at 5 umol/L incubated for 24 hrs by Annexin V-FITC/PI staining based flow cytometric analysis (reference value: 0.00 %); assay type: functional; conditions: dose 5 µmol/L, at 5 µM
SK-OV-3 [10] = test: Induction of apoptosis in human SK-OV-3 cells assessed as early apoptotic cells at 20 umol/L incubated for 24 hrs by Annexin V-FITC/PI staining based flow cytometric analysis (reference value: 4.66 %); assay type: functional; conditions: dose 20 µmol/L, at 20 µM
SK-OV-3 [11] = test: Induction of apoptosis in human SK-OV-3 cells assessed as viable cells at 10 umol/L incubated for 24 hrs by Annexin V-FITC/PI staining based flow cytometric analysis (reference value: 89.83 %); assay type: functional; conditions: SK-OV-3, 24 h, dose 10 µmol/L, read-out: Activity
SK-OV-3 [12] = test: Induction of apoptosis in human SK-OV-3 cells assessed as viable cells at 15 umol/L incubated for 24 hrs by Annexin V-FITC/PI staining based flow cytometric analysis (reference value: 89.83 %); assay type: functional; conditions: SK-OV-3, 24 h, dose 15 µmol/L, read-out: Activity
SK-OV-3 [13] = test: Induction of apoptosis in human SK-OV-3 cells assessed as late apoptotic cells at 25 umol/L incubated for 24 hrs by Annexin V-FITC/PI staining based flow cytometric analysis (reference value: 5.51 %); assay type: functional; conditions: dose 25 µmol/L, at 25 µM
SK-OV-3 [14] = test: Induction of apoptosis in human SK-OV-3 cells assessed as early apoptotic cells at 15 umol/L incubated for 24 hrs by Annexin V-FITC/PI staining based flow cytometric analysis (reference value: 4.66 %); assay type: functional; conditions: dose 15 µmol/L, at 15 µM
SK-OV-3 [15] = test: Induction of apoptosis in human SK-OV-3 cells assessed as early apoptotic cells at 5 umol/L incubated for 24 hrs by Annexin V-FITC/PI staining based flow cytometric analysis (reference value: 4.66 %); assay type: functional; conditions: dose 5 µmol/L, at 5 µM
SK-OV-3 [16] = test: Induction of apoptosis in human SK-OV-3 cells assessed as early apoptotic cells at 25 umol/L incubated for 24 hrs by Annexin V-FITC/PI staining based flow cytometric analysis (reference value: 4.66 %); assay type: functional; conditions: dose 25 µmol/L, at 25 µM
SK-OV-3 [17] = test: Induction of apoptosis in human SK-OV-3 cells assessed as necrotic cells at 10 umol/L incubated for 24 hrs by Annexin V-FITC/PI staining based flow cytometric analysis (reference value: 0.00 %); assay type: functional; conditions: dose 10 µmol/L, at 10 µM
SK-OV-3 [18] = test: Induction of apoptosis in human SK-OV-3 cells assessed as viable cells at 5 umol/L incubated for 24 hrs by Annexin V-FITC/PI staining based flow cytometric analysis (reference value: 89.83 %); assay type: functional; conditions: SK-OV-3, 24 h, dose 5 µmol/L, read-out: Activity
SK-OV-3 [19] = test: Induction of apoptosis in human SK-OV-3 cells assessed as late apoptotic cells at 15 umol/L incubated for 24 hrs by Annexin V-FITC/PI staining based flow cytometric analysis (reference value: 5.51 %); assay type: functional; conditions: dose 15 µmol/L, at 15 µM
SK-OV-3 [20] = test: Induction of apoptosis in human SK-OV-3 cells assessed as late apoptotic cells at 20 umol/L incubated for 24 hrs by Annexin V-FITC/PI staining based flow cytometric analysis (reference value: 5.51 %); assay type: functional; conditions: dose 20 µmol/L, at 20 µM
SK-OV-3 [21] = test: Induction of apoptosis in human SK-OV-3 cells assessed as necrotic cells at 20 umol/L incubated for 24 hrs by Annexin V-FITC/PI staining based flow cytometric analysis (reference value: 0.00 %); assay type: functional; conditions: dose 20 µmol/L, at 20 µM
SK-OV-3 [22] = test: Induction of apoptosis in human SK-OV-3 cells assessed as viable cells at 20 umol/L incubated for 24 hrs by Annexin V-FITC/PI staining based flow cytometric analysis (reference value: 89.83 %); assay type: functional; conditions: SK-OV-3, 24 h, dose 20 µmol/L, read-out: Activity
SK-OV-3 [23] = test: Induction of apoptosis in human SK-OV-3 cells assessed as early apoptotic cells at 10 umol/L incubated for 24 hrs by Annexin V-FITC/PI staining based flow cytometric analysis (reference value: 4.66 %); assay type: functional; conditions: dose 10 µmol/L, at 10 µM
SK-OV-3 [24] = test: Induction of apoptosis in human SK-OV-3 cells assessed as necrotic cells at 25 umol/L incubated for 24 hrs by Annexin V-FITC/PI staining based flow cytometric analysis (reference value: 0.00 %); assay type: functional; conditions: dose 25 µmol/L, at 25 µM

Compound	IC50 (HeLa) [µM]	IC50 (HepG2) [µM]	IC50 (SK-OV-3 [3]) [µM]	IC50 (T47D) [µM]	IC50 (MCF7) [µM]	IC50 at 72 h [1] [µM]	other results
C[C@]12CC[C@@H]3c4ccc(OCC[Se]C#N)cc4CC[C@H]3[C@@H]1CCC2=O	20.2	> 100	60.3	–	52.3	51.1	–
C[C@]12CC[C@@H]3c4cc(N)c(O)cc4CC[C@H]3[C@@H]1CCC2=O	> 70	56.3	> 70	50.5	> 70	36.4	–
COc1ccc2c(c1)CC[C@@H]1[C@@H]2CC[C@]2(C)C(NC(=O)C[Se]C#N)CC[C@@H]12 (some centres not stated)	16.2	10.5	30.6	75.9	56.1	15	–
C[C@]12CC[C@@H]3c4ccc(O)cc4CC[C@H]3[C@@H]1CCC2NC(=O)c1ccc(C[Se]C#N)cc1 (some centres not stated)	13.7	16.1	27.7	25.1	17.2	13.4	–
COc1ccc2c(c1)CC[C@@H]1[C@@H]2CC[C@]2(C)C(NC(=O)c3ccc(C[Se]C#N)cc3)CC[C@@H]12 (some centres not stated)	9.6	13.8	22.4	40.8	15.8	24.6	–

More lines, in order of falling IC50 (HeLa), values ahead:

IC50 (HeLa) [µM]	IC50 (HepG2) [µM]	IC50 (SK-OV-3 [3]) [µM]	IC50 (T47D) [µM]	IC50 (MCF7) [µM]	Compound	IC50 at 72 h [1] [µM]	other results
21	80.4	69	24.2	3.9	COc1ccc2c(c1)CC[C@@H]1[C@@H]2CC[C@]2(C)/C(=N/OC(=O)c3ccc(C[Se]C#N)cc3)CC[C@@H]12	23.2	–
18.2	> 100	46.6	19.7	27.5	C[C@]12CC[C@@H]3c4ccc(OCCCCCCCCCCCC[Se]C#N)cc4CC[C@H]3[C@@H]1CCC2=O	16.5	–
16.9	59.8	59.5	34.7	38.2	C[C@]12CC[C@H](O)CC1=CC[C@@H]1[C@@H]2CC[C@]2(C)C(c3cccnc3)=CC[C@@H]12 [ABIRATERONE]	> 100	–
10.2	10.1	8.2	24.9	10.1	C[C@]12CC[C@@H]3c4cc(NC(=O)CCCCCC[Se]C#N)c(O)cc4CC[C@H]3[C@@H]1CCC2=O	14.4	viability at 25 µM (SK-OV-3 [5]): 6.93%; Activity (SK-OV-3 [6]): 36.97%; Activity (SK-OV-3 [7]): 0.2%; Activity (SK-OV-3 [8]): 28.34%; Activity (SK-OV-3 [9]): 0.04%; Activity (SK-OV-3 [10]): 29.04%; viability at 10 µM (SK-OV-3 [11]): 30.2%; viability at 15 µM (SK-OV-3 [12]): 16.3%; Activity (SK-OV-3 [13]): 50.48%; Activity (SK-OV-3 [14]): 31.88%; Activity (SK-OV-3 [15]): 27.75%; Activity (SK-OV-3 [16]): 42.27%; Activity (SK-OV-3 [17]): 0.45%; viability at 5 µM (SK-OV-3 [18]): 43.9%; Activity (SK-OV-3 [19]): 51.6%; Activity (SK-OV-3 [20]): 58.26%; Activity (SK-OV-3 [21]): 0.17%; viability at 20 µM (SK-OV-3 [22]): 12.5%; Activity (SK-OV-3 [23]): 32.38%; Activity (SK-OV-3 [24]): 0.33%
9.4	1	2.6	22.8	16.6	C[C@]12CC[C@@H]3c4cc(NC(=O)C[Se]C#N)c(O)cc4CC[C@H]3[C@@H]1CCC2=O	15.4	selectivity ratio at 72 h [2]: 3; selectivity ratio [4]: 15
5.6	42.5	20.1	59.2	8	C[C@]12CC[C@@H]3c4ccc(OCCCCCCCC[Se]C#N)cc4CC[C@H]3[C@@H]1CCC2=O	8.9	–
